Test results: patent publication US7355074B2, “Compounds having aromatic rings and side-chain amide-functionality and a method for transporting monovalent anions across biological membranes using the same” (The University of Maryland, priority 2003, dated 2008)

Experiment: calcein dye release assay (lytic potential)
Assay type: biochemical
Conditions: 5-100 μM, 1-20 mol % ligand; LUVs containing 120 mM calcein
Procedure: Calix[4]arene tetrabutylamide 2 may transport ions across LUVs by inducing membrane defects, by uniport of ions, or via cotransport of ion pairs ([…], M^− or OH^−/A^− antiport and H^+/A^− or M^+/OH^− symport mechanisms are possible). The lytic potential of 2 was evaluated using a dye release assay. The self-quenching dye calcein loses 95% of its fluorescence emission at concentrations above 100 mM. 2.
EYPC Calcein-Containing Vesicles: Calcein (224.1 mg, 0.36 mmol) was suspended in 3 mL of phosphate buffer (100 mM NaCl, 10 mM sodium phosphate, pH 6.4). The pH of the solution was adjusted to 6.4 with a 7.4 M NaOH-containing phosphate buffer, at which point all the calcein was dissolved to give a 120 mM solution of the dye. The molality of the extravesicular buffer was adjusted to equal that of the calcein-containing solution with 1 m NaCl. Osmomolality was determined by VPO. A thin film was prepared from 60 mg of EYPC ([…]) as described above. The lipid film was hydrated in 1.2 mL of the calcein buffer. During hydration, the suspension was submitted to five freeze-thaw cycles (dry ice in acetone, water at room temperature) and then submitted to high-pressure extrusion (2) extrusions through a 0.1 μm polycarbonate membrane afforded LUVs with an average diameter of 100 nm). […]

## CCCCNC(=O)COc1c2cccc1Cc1cccc(c1OCC(=O)NCCCC)Cc1cccc(c1OCC(=O)NCCCC)Cc1cccc(c1OCC(=O)NCCCC)C2 [calix[4]arene tetrabutylamide 2, Calix[4]arene tetrabutylamide]
  calcein fluorescence (membrane defects): no fluorescence enhancement
